# In patent US20160279135A1, “THERAPIES FOR TREATING MYELOPROLIFERATIVE DISORDERS” (Gilead Sciences, Inc., priority 2013, published 2016):
# Values joined by “and” are separate entries in the source; they are usually repeats but may differ in a detail not shown here. Equal values may be shown once.
# Tests used:
# [1] = test system: p-AKT Ser473; test: Western blot of AKT phosphorylation in BaF3/MPL cells; type: cell-based; conditions: 2 h, then TPO 50 ng/mL 10 min, vs vehicle
# Procedure: (§1) In addition, Compound B was examined for the effects on the PI3K signaling pathway by determining the levels of AKT and S6 phosphorylation with or without TPO activation. Two cell lines, BaF3/MPL and UT-7/TPO sensitive or responsive to TPO activation were used. The cells were starved (i.e. growing on medium having less FBS) in […] FBS/RPMI for two hours before treated with 0.1, 1.0, or 2.0 μM of Compound B or vehicle (0.1% DMSO in RPMI) for 2 hours at 37° C. To examine the TPO-activated phosphorylation, the cells were then treated or activated with 50 ng/mL of human recombinant TPO (Peprotech) for 10 minutes at 37° C. The TPO activation or treatment may reflect the conditions in diseased cells as the PI3K pathway is activated by TPO in myelofibrosis. After treating with compound and/or TPO, the cells were collected, lysed by lysis buffer (Cell Signaling), separated by SDS-PAGE, and analyzed by the Western blot using antibodies specific to p-AKT Ser473 or pS6 Ser235/236 (Cell Signaling). The phosphorylation levels in treated cells were calculated and compared to those of untreated cells (i.e. vehicle as negative control).
# [2] = test system: pS6 Ser235/236; test: Western blot of S6 phosphorylation in BaF3/MPL cells; type: cell-based; conditions: 2 h, then TPO 50 ng/mL 10 min, vs vehicle
# Procedure: as §1
# [3] = test system: pS6 Ser235/236; test: Western blot of S6 phosphorylation in UT-7/TPO cells; type: cell-based; conditions: 2 h, then TPO 50 ng/mL 10 min, vs vehicle
# Procedure: as §1
# [4] = test system: p-AKT Ser473; test: flow cytometry of AKT phosphorylation in CD34+ progenitor cells from MF patients; type: cell-based, human; conditions: 2.0 μM
# Procedure: (§2) In this example, PBMCs were isolated from whole blood of myelofibrosis (MF) patients who had not received treatments (i.e. naïve patients) or received ruxolitinib (i.e. rux-treated patients). The cells were treated with 0.02, 0.2, or 2.0 μM of Compound B or vehicle (0.1% DMSO in 0.1% FBS/RPMI) for 2 hours at 37° C. The cells were then fixed, permeabilized, and stained for FACS analysis. Antibodies specific to p-AKT Ser473 and pS6RP Ser235/236 were used to detect AKT phosphorylation (p-AKT) and S6RP phosphorylation (p-S6RP) in CD34^+/CD3^−/CD14^−/CD19/CD66^− (BD Biosciences) gated cells using flow cytometry. The percentage of basal (i.e. untreated with TPO) AKT and S6RP phosphorylation were normalized to vehicle control (i.e. “no TPO” values shown in Table 2). A two-tailed paired t-test (GraphPad Prism) was used to calculate p-values. Values of p<0.05 were considered significant.
# (§3) Also, PBMC cells were treated with Compound B and with TPO as described above. The percentage of TPO-activated AKT and S6RP phosphorylation were normalized to those of TPO-treated vehicle. […] Also, the inhibition to PI3K signaling was dose-dependent to Compound B.
# (§4) Similar studies were conducted with PI3K inhibitors Compounds C and D. PBMC from MF patients had received ruxolitinib (rux) and MF patient had received Compound A. The cells were treated with Compounds C or D at 0, 20.0, 200.0, 2000.0 nM for 2 hours at 37° C. Cells were treated with TPO for 10 minutes. The percentage of basal p-AKT and p-S6RP levels were normalized to vehicle control and those of TPO-treated were normalized to TPO-treated vehicle control. The PI3K inhibitors Compounds C and D had the chemical names of (S)-2-(1-((9H-purin-6-yl)amino)ethyl)-6-fluoro-3-phenylquinazolin-4(3H)-one and (S)-2,4-diamino-6-(((5-chloro-8-fluoro-4-oxo-3-(pyridine-3-yl)-3,4-dihydroquinazolin-2-yl)(cyclopropyl)methyl)amino)pyrimidine-5-carbonitrile, respectively.
# [5] = test system: pS6RP Ser235/236; test: flow cytometry of S6RP phosphorylation in CD34+ progenitor cells from MF patients; type: cell-based, human; conditions: for normalized percentage of TPO-activated S6RP phosphorylation (p-S6RP): 2.0 μM, then TPO, one value per patient, TPO-treated vehicle = 100
# Procedure: as §2, §3, §4
# [6] = clinical; conditions: human, in vivo
# Description: For in vitro or in vivo studies, the effect amount of Compounds A, B, C, D, E, or ruxolinitib may be adjusted according to the experimental condition. Similarly, the effect amount of Compounds D1, D2, D3, D4, D5, D6, D7, D8, D9, E1, E2, E3, E4, E5, E6, E7, E8, E9, or F, may be adjusted according to the experimental condition for in vitro or in vivo studies. For example, compounds may be used in the amount of 0.001, 0.002, 0.003, 0.004, 0.005, 0.006, 0.007, 0.008, 0.009, 0.01, 0.02, 0.03, 0.04, 0.05, 0.06, 0.07, 0.08, 0.09, 0.1, 0.2, 0.3, 0.4, 0.5, 0.6, 0.7, 0.8, 0.9, 1.0, 1.5, 2.0, 2.5, 3.0, 3.5, 4.0, 5.0, 6.0, 7.0, 8.0, 9.0, or 10.0 μM. In some studies, the in vitro doses of the compounds may be calculated to correspond to the clinical doses of the compounds. The calculation may consider various factors, such as protein binding and plasma concentration. […] It is understood that the in vitro doses may differ, depend on the assay condition and other calculation factors, and that the clinical doses may differ depend on the disease indication and the patient condition.
# In this study, PBMCs were isolated from the whole blood from five MF patients receiving chronic ruxolitinib treatment (rux 1-rux 5). The cells were treated with either vehicle, ruxolitinib, and/or Compound B for 2 hours then stimulated with TPO (50 ng/mL) for 10 minutes. Ruxolitinib at the dose of 1 or 20 nM and Compound B at the dose of 45, 200, or 700 nM were used.
# Next, Pfeiffer cells were treated with IL6 (0 or 3 ng/mL), Compound A (0, 136, 272, or 695 nM), and/or Compound B (0, 74, 200, or 421 nM) (n=4 per group) for 96 hours. The doses in this assay may correspond to those used in a clinical setting. […] In addition, the in-vitro dose of 136 nM Compound A may correspond to the potential Caverage detected in patients receiving Compound A at 300 mg once a day.
smiles,measurement,setting,value
"CC[C@H](Nc1ncnc2[nH]cnc12)c1nc2cccc(F)c2c(=O)n1-c1ccccc1 [Compound B, (S)-2-(1-((9H-purin-6-yl)amino)propyl)-5-fluoro-3-phenylquinazolin-4(3H)-one]",reduced p-AKT levels,[1]; 0.1 μM,51%
same,reduced p-AKT levels,[1]; 1.0 μM,64%
same,reduced p-S6 levels,[2]; 0.1 μM,24%
same,reduced p-S6 levels,[2]; 1.0 μM,27%
same,reduced p-S6 levels,[2]; 2.0 μM,41%
same,reduced p-S6 levels,[3]; 0.1 μM,13%
same,reduced p-S6 levels,[3]; 1.0 μM,28%
same,reduced p-S6 levels,[3]; 2.0 μM,48%
same,normalized percentage of TPO-activated AKT phosphorylation (p-AKT),"[4]; then TPO, progenitor cells of rux-treated MF patients, one value per patient, TPO-treated vehicle = 100",40% and 29% and 35% and 16% (2×)
same,normalized percentage of p-AKT,"[4]; progenitor cells from Compound A-treated MF patients, one value per subject, column 0 = 100",24% and 55% and 30%
same,normalized percentage of TPO-activated S6RP phosphorylation (p-S6RP),[5]; progenitor cells of naïve MF patients,23% and 45%
same,normalized percentage of TPO-activated S6RP phosphorylation (p-S6RP),[5]; progenitor cells of rux-treated MF patients,21% and 45% and 36% and 20% and 31%
same,basal p-S6RP levels,"[5]; 0.02-2.0 μM, 2 h, no TPO, MF progenitor cells vs untreated, data not shown",reduced levels
same,in-vitro dose corresponding to the potential Caverage,[6],200 nM
same,in-vitro dose corresponding to the potential Cmin,[6],74 nM
same,Cmax,[6]; 150 mg,421 nM
